According to PubChem BioAssay (NCI):
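Five compound concentrations were applied to cells in 96-well plates for 48 hours; endpoints were derived by simple linear interpolation of the resulting dose-response curve. TGI: concentration producing complete growth inhibition.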

How the values were obtained:
Test in all cases: NCI anticancer screen, dose series, 48 h
786-0 renal = test system: 786-0 renal
A498 renal = test system: A498 renal
A549 NSCLC = test system: A549 NSCLC
ACHN renal = test system: ACHN renal
BT-549 breast = test system: BT-549 breast
CAKI-1 renal = test system: CAKI-1 renal
CCRF-CEM leukemia = test system: CCRF-CEM leukemia
COLO 205 colon = test system: COLO 205 colon
DU-145 prostate = test system: DU-145 prostate
EKVX NSCLC = test system: EKVX NSCLC
HCC-2998 colon = test system: HCC-2998 colon
HCT-116 colon = test system: HCT-116 colon
HCT-15 colon = test system: HCT-15 colon
HL-60(TB) leukemia = test system: HL-60(TB) leukemia
HOP-62 NSCLC = test system: HOP-62 NSCLC
HOP-92 NSCLC = test system: HOP-92 NSCLC
HS 578T breast = test system: HS 578T breast
HT29 colon = test system: HT29 colon
IGROV1 ovarian = test system: IGROV1 ovarian
K-562 leukemia = test system: K-562 leukemia
KM12 colon = test system: KM12 colon
LOX IMVI melanoma = test system: LOX IMVI melanoma
M14 melanoma = test system: M14 melanoma
MALME-3M melanoma = test system: MALME-3M melanoma
MCF7 breast = test system: MCF7 breast
MDA-MB-231 breast = test system: MDA-MB-231 breast
MDA-MB-435 = test system: MDA-MB-435
MDA-N = test system: MDA-N
MOLT-4 leukemia = test system: MOLT-4 leukemia
NCI-H23 lung = test system: NCI-H23 lung
NCI-H460 lung = test system: NCI-H460 lung
NCI-H522 lung = test system: NCI-H522 lung
NCI/ADR-RES ovarian = test system: NCI/ADR-RES ovarian
OVCAR-3 ovarian = test system: OVCAR-3 ovarian
OVCAR-4 ovarian = test system: OVCAR-4 ovarian
OVCAR-5 ovarian = test system: OVCAR-5 ovarian
OVCAR-8 ovarian = test system: OVCAR-8 ovarian
PC-3 prostate = test system: PC-3 prostate
RPMI-8226 leukemia = test system: RPMI-8226 leukemia
RXF 393 renal = test system: RXF 393 renal
SF-268 CNS = test system: SF-268 CNS
SF-295 CNS = test system: SF-295 CNS
SF-539 CNS = test system: SF-539 CNS
SK-MEL-2 melanoma = test system: SK-MEL-2 melanoma
SK-MEL-28 melanoma = test system: SK-MEL-28 melanoma
SK-MEL-5 melanoma = test system: SK-MEL-5 melanoma
SK-OV-3 ovarian = test system: SK-OV-3 ovarian
SNB-19 CNS = test system: SNB-19 CNS
SNB-75 CNS = test system: SNB-75 CNS
SR leukemia = test system: SR leukemia
SW-620 colon = test system: SW-620 colon
T-47D breast = test system: T-47D breast
TK-10 renal = test system: TK-10 renal
U251 CNS = test system: U251 CNS
UACC-257 melanoma = test system: UACC-257 melanoma
UACC-62 melanoma = test system: UACC-62 melanoma
UO-31 renal = test system: UO-31 renal
NCI-H226 lung = test system: NCI-H226 lung
SN12C renal = test system: SN12C renal

## Cc1cccc2c(N)c3cccc(C(=O)NCCNCCN)c3nc12
786-0 renal
  TGI: 16.9 µM
A498 renal
  TGI: > 55.9 µM
A549 NSCLC
  TGI: 20.4 µM
ACHN renal
  TGI: > 100 µM
BT-549 breast
  TGI: 33.3 µM
CAKI-1 renal
  TGI: 79.9 µM
CCRF-CEM leukemia
  TGI: > 100 µM
COLO 205 colon
  TGI: > 33.4 µM
DU-145 prostate
  TGI: > 72.4 µM
EKVX NSCLC
  TGI: > 94.6 µM
HCC-2998 colon
  TGI: > 40.8 µM
HCT-116 colon
  TGI: > 42.6 µM
HCT-15 colon
  TGI: > 100 µM
HL-60(TB) leukemia
  TGI: > 100 µM
HOP-62 NSCLC
  TGI: > 46.3 µM
HOP-92 NSCLC
  TGI: > 71.8 µM
HS 578T breast
  TGI: 24.6 µM
HT29 colon
  TGI: 91.2 µM
IGROV1 ovarian
  TGI: > 100 µM
K-562 leukemia
  TGI: > 100 µM
KM12 colon
  TGI: > 100 µM
LOX IMVI melanoma
  TGI: 39.9 µM
M14 melanoma
  TGI: > 100 µM
MALME-3M melanoma
  TGI: 36.2 µM
MCF7 breast
  TGI: > 100 µM
MDA-MB-231 breast
  TGI: 36.1 µM
MDA-MB-435
  TGI: > 78.8 µM
MDA-N
  TGI: 58.6 µM
MOLT-4 leukemia
  TGI: > 96.1 µM
NCI-H23 lung
  TGI: 6.21 µM
NCI-H460 lung
  TGI: 19.8 µM
NCI-H522 lung
  TGI: 1.36 µM
NCI/ADR-RES ovarian
  TGI: > 100 µM
OVCAR-3 ovarian
  TGI: > 93.7 µM
OVCAR-4 ovarian
  TGI: 19.1 µM
OVCAR-5 ovarian
  TGI: > 100 µM
OVCAR-8 ovarian
  TGI: 17.8 µM
PC-3 prostate
  TGI: > 100 µM
RPMI-8226 leukemia
  TGI: > 90.1 µM
RXF 393 renal
  TGI: 36.1 µM
SF-268 CNS
  TGI: 1.27 µM
SF-295 CNS
  TGI: > 100 µM
SF-539 CNS
  TGI: 22.4 µM
SK-MEL-2 melanoma
  TGI: 28.5 µM
SK-MEL-28 melanoma
  TGI: 36 µM
SK-MEL-5 melanoma
  TGI: > 58.4 µM
SK-OV-3 ovarian
  TGI: > 100 µM
SNB-19 CNS
  TGI: 33.8 µM
SNB-75 CNS
  TGI: 4.88 µM
SR leukemia
  TGI: > 100 µM
SW-620 colon
  TGI: > 100 µM
T-47D breast
  TGI: > 86.1 µM
TK-10 renal
  TGI: 95.4 µM
U251 CNS
  TGI: > 24.5 µM
UACC-257 melanoma
  TGI: 99.3 µM
UACC-62 melanoma
  TGI: 39.8 µM
UO-31 renal
  TGI: 51.5 µM

## COc1ccc(C[C@@H]2OC3(C=CC(=O)CC3Sc3ccccc3)O[C@H]2Cc2ccc(OC)cc2)cc1 (some centres not stated)
786-0 renal
  TGI: 0.365 µM
A498 renal
  TGI: 16.1 µM
A549 NSCLC
  TGI: 12.7 µM
ACHN renal
  TGI: 2.81 µM
BT-549 breast
  TGI: 1.49 µM
CAKI-1 renal
  TGI: 4.97 µM
CCRF-CEM leukemia
  TGI: 0.768 µM
COLO 205 colon
  TGI: 3.36 µM
DU-145 prostate
  TGI: 11.6 µM
HCT-15 colon
  TGI: 2.8 µM
HL-60(TB) leukemia
  TGI: 6.06 µM
HOP-62 NSCLC
  TGI: 2.5 µM
HOP-92 NSCLC
  TGI: 2.49 µM
HS 578T breast
  TGI: 4.19 µM
HT29 colon
  TGI: 3.19 µM
IGROV1 ovarian
  TGI: 2.13 µM
K-562 leukemia
  TGI: > 100 µM
KM12 colon
  TGI: 5.63 µM
LOX IMVI melanoma
  TGI: 1.72 µM
M14 melanoma
  TGI: 2.75 µM
MALME-3M melanoma
  TGI: 4.02 µM
MCF7 breast
  TGI: 1.98 µM
MDA-MB-231 breast
  TGI: 7.35 µM
MDA-MB-435
  TGI: 3.98 µM
MDA-N
  TGI: 4.98 µM
MOLT-4 leukemia
  TGI: 2.18 µM
NCI-H226 lung
  TGI: 3.33 µM
NCI-H23 lung
  TGI: 5.16 µM
NCI-H460 lung
  TGI: 12.1 µM
NCI/ADR-RES ovarian
  TGI: 3.64 µM
OVCAR-3 ovarian
  TGI: 3.15 µM
OVCAR-4 ovarian
  TGI: 3.7 µM
OVCAR-5 ovarian
  TGI: 2.58 µM
OVCAR-8 ovarian
  TGI: 0.966 µM
PC-3 prostate
  TGI: 3.95 µM
RPMI-8226 leukemia
  TGI: 1.31 µM
RXF 393 renal
  TGI: 0.348 µM
SF-268 CNS
  TGI: 1.75 µM
SF-295 CNS
  TGI: 4.69 µM
SF-539 CNS
  TGI: 3 µM
SK-MEL-2 melanoma
  TGI: 3.05 µM
SK-MEL-28 melanoma
  TGI: 3.35 µM
SK-MEL-5 melanoma
  TGI: 3.09 µM
SK-OV-3 ovarian
  TGI: 7.84 µM
SN12C renal
  TGI: 5.22 µM
SNB-19 CNS
  TGI: 10.3 µM
SNB-75 CNS
  TGI: 3.05 µM
SR leukemia
  TGI: 0.583 µM
SW-620 colon
  TGI: 0.946 µM
T-47D breast
  TGI: 3.74 µM
TK-10 renal
  TGI: 3.88 µM
U251 CNS
  TGI: 2.78 µM
UACC-257 melanoma
  TGI: 3.16 µM
UACC-62 melanoma
  TGI: 5.12 µM
UO-31 renal
  TGI: 2.28 µM
